{
  "source": "patent US7008924B1",
  "about": "“VGF fusion polypeptides” (Amgen, Inc., priority 1999, dated 2006)",
  "system": "VGF knockout mice",
  "assay": "Biological activity of VGF polypeptide in knockout mice (body weight)",
  "format": "in vivo",
  "details": "VGF gene knockout mice; intraperitoneal injection of 2 mg twice daily for five days; three of the four treated mice",
  "experimental": "The biological activity of VGF polypeptides in knockout mice was analyzed using VGF polypeptides synthesized by the Amgen Boulder Peptide Technology group using standard peptide synthesis protocols. Following peptide synthesis, VGF polypeptides from different batches were pooled and lyophilized. The peptide content for each VGF polypeptide was determined by hydrolysis with HCl.\nVGF gene knockout mice were obtained from Steve Salton of Mt. Sinai School of Medicine, New York, N.Y. Prior to administration of VGF polypeptide, knockout mice were housed under LD 12:12 conditions (i.e., 12 hours of light and 12 hours of dark). Twenty-four hours before VGF polypeptide injection, knockout mice were individually caged and moved to a temporary housing room where the mice were kept for the remainder of the experiment under LD 12:12 conditions.\nVGF polypeptide was administered to knockout mice twice daily (at 9:00 a.m. and 6:00 p.m.) by intraperitoneal injection of 2 mg of VGF-1a (SEQ ID NO: 2; Table I). Prior to injection, VGF-1a polypeptide was diluted to 16% in aCSF Solution Buffer (126.6 mM NaCl, 2.6 mM KCl, 2.0 mM MgCl2 and 1.4 mM CaCl2, 10 mM NaPO4, pH 7.4). Knockout mice were administered VGF-1a polypeptide for five days and the body weight of each mouse was measured daily. The body weight of treated mice was measured daily for three days following the withdrawal of VGF-1a polypeptide.",
  "data": [
    {"substance": "VGF-1a: VGF polypeptide, amino acid sequence AQEEADAEE (listed as Rattus norvegicus)", "values": [
      {"measurement": "gain in body weight", "result": "10–15%"}
    ]}
  ]
}
